Legend:
[1] = target: T1, murine Nurr1 receptor (Mus musculus, UniProt Q06219); assay: In vitro activity on N2A cells (8NBRE-luciferase reporter); assay type: cell-based; conditions: N2A cells endogenously expressing Nurr1, stably transfected with 8NBRE-luciferase; 24 hours incubation
T1 construct: a cell line (N2A) endogenously expressing the murine Nurr1 receptor; host or cells: Neuro-2A (N2A) mouse neuroblastoma cells stably transfected with 8NBRE-luciferase
Protocol: Evaluation of the In Vitro Activity on N2A Cells
The activity of the compounds according to the invention was evaluated on a cell line (N2A) endogenously expressing the murine Nurr1 receptor and stably transfected with the NOT binding response element (NBRE) coupled to the luciferase reporter gene. The tests were performed according to the procedure described hereinbelow.
The cell line Neuro-2A is obtained from a standard commercial source (ATCC). The clone Neuro-2A was obtained from a spontaneous tumour originating from a strain of albino mice A by R. J Klebe et al. This line Neuro-2A is then stably transfected with 8NBRE-luciferase. The N2A-8NBRE cells are cultured to the point of confluence in 75 cm^2 culture flasks containing DMEM supplemented with 10% foetal calf serum, 4.5 g/L of glucose and 0.4 mg/ml of geneticin. After culturing for one week, the cells are recovered with 0.25% trypsin for 30 seconds and then resuspended in DMEM without phenol red, containing 4.5 g/L of glucose and 10% Hyclone defatted serum, and placed in white, transparent-base 96-well plates. The cells are deposited at a rate of 60 000 per well in 75 4, for 24 hours before adding the products. The products are applied in 25 4 and incubated for a further 24 hours. On the day of measurement, an equivalent volume (100 4) of Steadylite is added to each well, and the wells are then left for 30 minutes to obtain complete lysis of the cells and maximum production of the signal. The plates are then measured in a microplate luminescence counter, after having been sealed with an adhesive film. The products are prepared in the form of a 10^−2 M stock solution, and then diluted in 100% of DMSO. Each concentration of product is prediluted in culture medium before incubation with the cells thus containing 0.625% final of DMSO.

T1 sequence (Q06219 whole entry): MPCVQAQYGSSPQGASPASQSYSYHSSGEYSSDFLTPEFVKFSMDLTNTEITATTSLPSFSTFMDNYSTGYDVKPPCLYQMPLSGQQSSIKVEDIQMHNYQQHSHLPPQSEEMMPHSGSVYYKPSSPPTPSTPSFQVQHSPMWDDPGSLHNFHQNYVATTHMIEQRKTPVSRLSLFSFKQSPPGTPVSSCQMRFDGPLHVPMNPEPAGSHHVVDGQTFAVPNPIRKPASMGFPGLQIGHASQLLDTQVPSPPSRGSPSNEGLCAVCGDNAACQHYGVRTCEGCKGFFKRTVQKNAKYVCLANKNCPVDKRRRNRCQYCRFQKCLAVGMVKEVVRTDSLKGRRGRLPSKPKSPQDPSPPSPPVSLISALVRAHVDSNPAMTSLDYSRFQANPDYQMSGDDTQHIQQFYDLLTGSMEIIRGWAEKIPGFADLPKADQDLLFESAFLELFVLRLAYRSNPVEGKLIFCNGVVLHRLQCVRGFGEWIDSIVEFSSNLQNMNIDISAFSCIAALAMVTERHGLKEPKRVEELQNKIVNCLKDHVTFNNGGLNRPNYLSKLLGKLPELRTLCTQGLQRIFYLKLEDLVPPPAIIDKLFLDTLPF

Row | Compound | melting point [°C] | EC50 [1] [µM]
1 | CNC(=O)c1ccc(-c2ccn3nc(-c4ccc(F)cc4)cc3c2)cc1 [Compound 20, 4-[2-(4-Fluorophenyl)pyrazolo[1,5-a]pyridin-5-yl]-N-methylbenzamide] | 264 to 266 | –
2 | CNC(=O)c1cccc(-c2ccn3nc(-c4ccc(Cl)cc4)cc3c2)c1 [Compound 4, 3-[2-(4-Chlorophenyl)pyrazolo[1,5-a]pyridin-5-yl]-N-methylbenzamide] | 234 to 236 | 0.002
3 | CNC(=O)c1cccc(-c2ccn3nc(-c4ccc(C(F)(F)F)cc4)cc3c2)c1 [Compound 19, N-Methyl-3-[2-(4-trifluoromethylphenyl)pyrazolo[1,5-a]pyridin-5-yl]benzamide] | 220 to 222 | –
4 | CNC(=O)c1ccc(C)c(-c2ccn3nc(-c4ccc(F)cc4)cc3c2)c1 [Compound 13, 3-[2-(4-Fluorophenyl)pyrazolo[1,5-a]pyridin-5-yl]-4,N-dimethylbenzamide] | 185 to 187 | –
5 | CNC(=O)c1ccc(-c2ccn3nc(-c4ccc(F)cc4)cc3c2)cc1F [Compound 14, 2-Fluoro-4-[2-(4-fluorophenyl)pyrazolo[1,5-c]pyridin-5-yl]-N-methylbenzamide] | 227 to 229 | 0.125
6 | CNC(=O)c1cc(-c2ccn3nc(-c4ccc(F)cc4)cc3c2)ccc1Cl [Compound 11, 2-Chloro-5-[2-(4-fluorophenyl)pyrazolo[1,5-a]pyridin-5-yl]-N-methylbenzamide] | 243 to 245 | –
7 | CC(C)NC(=O)c1cccc(-c2ccn3nc(-c4ccc(F)cc4)cc3c2)c1 [Compound 7, 3-[2-(4-Fluorophenyl)pyrazolo[1,5-a]pyridin-5-yl]-N-isopropylbenzamide] | 210 to 212 | –
8 | COC(=O)c1cccc(-c2ccn3nc(-c4ccc(Cl)cc4)cc3c2)c1 [Compound 1, Methyl 3-[2-(4-chlorophenyl)pyrazolo[1,5-a]pyridin-5-yl]benzoate] | 180 to 182 | –
9 | CN(C)C(=O)c1cccc(-c2ccn3nc(-c4ccc(Cl)cc4)cc3c2)c1 [Compound 3, 3-[2-(4-Chlorophenyl)pyrazolo[1,5-a]pyridin-5-yl]-N,N-dimethyl-benzamide] | 175 to 177 | –
10 | O=C(NC1CC1)c1cccc(-c2ccn3nc(-c4ccc(F)cc4)cc3c2)c1 [Compound 15, N-Cyclopropyl-3-[2-(4-fluorophenyl)pyrazolo[1,5-a]pyridin-5-yl]-benzamide] | 179 to 181 | –
11 | CNC(=O)c1cccc(-c2ccn3nc(-c4ccc(OC)cc4)cc3c2)c1 [Compound 29, 3-[2-(4-Methoxyphenyl)pyrazolo[1,5-a]pyridin-5-yl]-N-methylbenzamide] | 211 to 213 | –
12 | CNC(=O)c1cccc(-c2ccn3nc(-c4cc(F)cc(F)c4)cc3c2)c1 [Compound 26] | 230 to 232 | 0.0013
13 | CNC(=O)c1cccc(-c2ccn3nc(-c4cccc(F)c4F)cc3c2)c1 [Compound 32, 3-[2-(2,3-Difluorophenyl)pyrazolo[1,5-a]pyridin-5-yl]-N-methylbenzamide] | 214 to 216 | –
14 | NC(=O)c1cccc(-c2ccn3nc(-c4ccc(Cl)cc4)cc3c2)c1 [Compound 2, 3-[2-(4-Chlorophenyl)pyrazolo[1,5-a]pyridin-5-yl]benzamide] | 283 to 285 | 0.045
15 | O=C(c1cccc(-c2ccn3nc(-c4ccc(F)cc4)cc3c2)c1)N1CCCC1 [Compound 16, {3-[2-(4-Fluorophenyl)pyrazolo[1,5-c]pyridin-5-yl]phenyl}pyrrolidin-1-ylmethanone] | 164 to 166 | 0.326
16 | CNC(=O)c1cccc(-c2ccn3nc(-c4ccccc4F)cc3c2)c1 [Compound 18, 3-[2-(2-Fluorophenyl)pyrazolo[1,5-a]pyridin-5-yl]-N-methylbenzamide] | 195 to 197 | –
17 | CNC(=O)c1cccc(-c2ccn3nc(-c4ccccc4C)cc3c2)c1 [Compound 33, N-Methyl-3-(2-o-tolylpyrazolo[1,5-a]pyridin-5-yl)benzamide] | 129 to 131 | –
18 | CNC(=O)c1cccc(-c2ccn3nc(-c4cccc(F)c4)cc3c2)c1 [Compound 27, 3-[2-(3-Fluorophenyl)pyrazolo[1,5-a]pyridin-5-yl]-N-methylbenzamide] | 204 to 206 | –
19 | CNC(=O)c1cccc(-c2ccn3nc(-c4ccc(F)cc4)cc3c2)c1 [Compound 6, 3-[2-(4-Fluorophenyl)pyrazolo[1,5-a]pyridin-5-yl]-N-methylbenzamide] | 214 to 216 | –
20 | O=C(c1cccc(-c2ccn3nc(-c4ccc(F)cc4)cc3c2)c1)N1CCC(O)C1 (centres unmarked) [Compound 22, {3-[2-(4-Fluorophenyl)pyrazolo[1,5-a]pyridin-5-yl]phenyl}-(3-hydroxy-pyrrolidin-1-yl)methanone] | 173 to 175 | –
21 | CNC(=O)c1cccc(-c2ccn3nc(-c4ccc(F)cc4)cc3c2)c1C [Compound 10, 3-[2-(4-Fluorophenyl)pyrazolo[1,5-a]pyridin-5-yl]-2,N-dimethylbenzamide] | – | 0.0066
22 | CNC(=O)c1cccc(-c2ccn3nc(-c4ccc(C)cc4)cc3c2)c1 [Compound 28, N-Methyl-3-(2-p-tolylpyrazolo[1,5-a]pyridin-5-yl)benzamide] | 204 to 206 | –
23 | CNC(=O)c1cccc(-c2ccn3nc(-c4ccc(F)cc4)c(Cl)c3c2)c1 [Compound 34, 3-[3-Chloro-2-(4-fluorophenyl)pyrazolo[1,5-a]pyridin-5-yl]-N-methyl-benzamide] | 221 to 223 | –
24 | CNC(=O)c1ccc(Cl)c(-c2ccn3nc(-c4ccc(F)cc4)cc3c2)c1 [Compound 12, 4-Chloro-3-[2-(4-fluorophenyl)pyrazolo[1,5-a]pyridin-5-yl]-N-methylbenzamide] | 188 to 190 | –
25 | CNC(=O)c1cccc(-c2ccn3nc(-c4ccc(C#N)cc4)cc3c2)c1 [Compound 31, 3-[2-(4-Cyanophenyl)pyrazolo[1,5-a]pyridin-5-yl]-N-methylbenzamide] | 252 to 254 | –
26 | COC(=O)c1cccc(-c2ccn3nc(-c4ccc(F)cc4)cc3c2)c1 [Compound 5, Methyl 3-[2-(4-fluorophenyl)pyrazolo[1,5-a]pyridin-5-yl]benzoate] | 162 to 164 | –
27 | CNC(=O)c1cccc(-c2ccn3nc(-c4ccc(F)cc4F)cc3c2)c1 [Compound 23, 3-[2-(2,4-Difluorophenyl)pyrazolo[1,5-a]pyridin-5-yl]-N-methylbenzamide] | 210 to 212 | –

From patent US8680096B2, “Diphenyl-pyrazolopyridine derivatives, preparation thereof, and use thereof as nuclear receptor not modulators” (Sanofi-Aventis, priority 2009, dated 2014)
